The values below come from PubChem BioAssay (NCI).

The test system of this assay is RPMI-8226 leukemia. Kind of assay: growth of human tumour cells (NCI), 384-well format.

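GI50 is the concentration that inhibits growth by half. Definition used: TGI = concentration required for complete inhibition of growth.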

On to `CCCCCOC(=O)Nc1nc(=O)n(C2OC(C)C(O)C2O)cc1F` (configuration not stated), for which the GI50 is more than 46.9 µM and the TGI amounted to 99.8 µM.
